Experiments:
Assay in all cases: KINOMEscan competition binding
Conditions in all cases: compound 10.0 µM
LATS2 (human) = LATS2 (human) (UniProt Q9NRM7)
NEK6 (human) = NEK6 (human) (UniProt Q9HC98)
TNK2 (human) = TNK2 (human) (UniProt Q07912)
LATS1 (human) = LATS1 (human) (UniProt O95835)
TIE1 (human) = TIE1 (human) (UniProt P35590)
EPHA1 (human) = EPHA1 (human) (UniProt P21709)
MAPK13 (human) = MAPK13 (human) (UniProt O15264)
[1] = system: EGFR (human), P00533 [A750P; 747-749 del]
PKN2 (human) = PKN2 (human) (UniProt Q16513)
AKT1 (human) = AKT1 (human) (UniProt P31749)
EPHA8 (human) = EPHA8 (human) (UniProt P29322)
PIP5K1A (human) = PIP5K1A (human) (UniProt Q99755)
MYLK (human) = MYLK (human) (UniProt Q15746)
EIF2AK2 (human) = EIF2AK2 (human) (UniProt P19525)
ERBB4 (human) = ERBB4 (human) (UniProt Q15303)
NEK1 (human) = NEK1 (human) (UniProt Q96PY6)
KIT (human) = KIT (human) (UniProt P10721)
CAMK1D (human) = CAMK1D (human) (UniProt Q8IU85)
ITK (human) = ITK (human) (UniProt Q08881)
TGFBR1 (human) = TGFBR1 (human) (UniProt P36897)
FER (human) = FER (human) (UniProt P16591)
MUSK (human) = MUSK (human) (UniProt O15146)
ULK1 (human) = ULK1 (human) (UniProt O75385)
CAMK2A (human) = CAMK2A (human) (UniProt Q9UQM7)
[2] = system: KIT (human), P10721 [D816H]
[3] = system: MET (human), P08581 [M1250T]
MAPK14 (human) = MAPK14 (human) (UniProt Q16539)
MAP2K6 (human) = MAP2K6 (human) (UniProt P52564)
GAK (human) = GAK (human) (UniProt O14976)
MAPK11 (human) = MAPK11 (human) (UniProt Q15759)
VRK2 (human) = VRK2 (human) (UniProt Q86Y07)
PRKCH (human) = PRKCH (human) (UniProt P24723)
DDR2 (human) = DDR2 (human) (UniProt Q16832)
RPS6KB1 (human) = RPS6KB1 (human) (UniProt P23443)
FRK (human) = FRK (human) (UniProt P42685)
MAK (human) = MAK (human) (UniProt P20794)
MERTK (human) = MERTK (human) (UniProt Q12866)
PRKG1 (human) = PRKG1 (human) (UniProt Q13976)
STK16 (human) = STK16 (human) (UniProt O75716)
STK3 (human) = STK3 (human) (UniProt Q13188)

MAPK14 (human), sequence (Q16539 whole entry, looked up): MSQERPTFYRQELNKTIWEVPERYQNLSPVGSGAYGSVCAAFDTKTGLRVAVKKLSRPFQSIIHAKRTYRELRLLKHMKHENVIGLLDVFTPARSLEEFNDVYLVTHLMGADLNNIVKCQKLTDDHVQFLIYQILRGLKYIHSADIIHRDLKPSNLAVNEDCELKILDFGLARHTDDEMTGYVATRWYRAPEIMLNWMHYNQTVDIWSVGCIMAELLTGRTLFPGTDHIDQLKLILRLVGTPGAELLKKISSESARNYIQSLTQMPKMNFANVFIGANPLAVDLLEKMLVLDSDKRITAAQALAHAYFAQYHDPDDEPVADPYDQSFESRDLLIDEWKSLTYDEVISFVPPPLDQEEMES
MUSK (human), sequence (O15146 whole entry, looked up): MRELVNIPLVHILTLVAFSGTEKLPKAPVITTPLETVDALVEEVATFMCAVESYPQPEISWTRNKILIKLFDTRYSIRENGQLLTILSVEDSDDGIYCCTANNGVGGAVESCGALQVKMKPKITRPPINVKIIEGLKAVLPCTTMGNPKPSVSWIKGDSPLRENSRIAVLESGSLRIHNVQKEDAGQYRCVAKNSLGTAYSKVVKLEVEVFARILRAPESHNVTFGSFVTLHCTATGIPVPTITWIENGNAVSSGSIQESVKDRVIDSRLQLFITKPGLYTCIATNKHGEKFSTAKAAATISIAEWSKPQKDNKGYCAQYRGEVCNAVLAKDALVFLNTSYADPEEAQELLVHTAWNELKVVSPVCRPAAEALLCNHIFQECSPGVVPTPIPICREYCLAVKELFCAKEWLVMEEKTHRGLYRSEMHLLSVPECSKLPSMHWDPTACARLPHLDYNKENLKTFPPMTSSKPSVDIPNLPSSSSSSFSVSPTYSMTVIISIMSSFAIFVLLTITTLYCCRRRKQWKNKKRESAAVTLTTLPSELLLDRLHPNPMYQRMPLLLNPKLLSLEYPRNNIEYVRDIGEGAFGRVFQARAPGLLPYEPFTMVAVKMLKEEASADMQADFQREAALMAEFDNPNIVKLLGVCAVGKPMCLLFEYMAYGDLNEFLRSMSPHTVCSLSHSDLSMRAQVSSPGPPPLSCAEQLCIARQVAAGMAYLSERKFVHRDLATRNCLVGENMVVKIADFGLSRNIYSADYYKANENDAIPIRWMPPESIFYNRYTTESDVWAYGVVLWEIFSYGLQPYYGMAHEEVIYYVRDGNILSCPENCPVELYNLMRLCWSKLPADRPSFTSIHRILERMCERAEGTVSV
TNK2 (human), sequence (Q07912 whole entry, looked up): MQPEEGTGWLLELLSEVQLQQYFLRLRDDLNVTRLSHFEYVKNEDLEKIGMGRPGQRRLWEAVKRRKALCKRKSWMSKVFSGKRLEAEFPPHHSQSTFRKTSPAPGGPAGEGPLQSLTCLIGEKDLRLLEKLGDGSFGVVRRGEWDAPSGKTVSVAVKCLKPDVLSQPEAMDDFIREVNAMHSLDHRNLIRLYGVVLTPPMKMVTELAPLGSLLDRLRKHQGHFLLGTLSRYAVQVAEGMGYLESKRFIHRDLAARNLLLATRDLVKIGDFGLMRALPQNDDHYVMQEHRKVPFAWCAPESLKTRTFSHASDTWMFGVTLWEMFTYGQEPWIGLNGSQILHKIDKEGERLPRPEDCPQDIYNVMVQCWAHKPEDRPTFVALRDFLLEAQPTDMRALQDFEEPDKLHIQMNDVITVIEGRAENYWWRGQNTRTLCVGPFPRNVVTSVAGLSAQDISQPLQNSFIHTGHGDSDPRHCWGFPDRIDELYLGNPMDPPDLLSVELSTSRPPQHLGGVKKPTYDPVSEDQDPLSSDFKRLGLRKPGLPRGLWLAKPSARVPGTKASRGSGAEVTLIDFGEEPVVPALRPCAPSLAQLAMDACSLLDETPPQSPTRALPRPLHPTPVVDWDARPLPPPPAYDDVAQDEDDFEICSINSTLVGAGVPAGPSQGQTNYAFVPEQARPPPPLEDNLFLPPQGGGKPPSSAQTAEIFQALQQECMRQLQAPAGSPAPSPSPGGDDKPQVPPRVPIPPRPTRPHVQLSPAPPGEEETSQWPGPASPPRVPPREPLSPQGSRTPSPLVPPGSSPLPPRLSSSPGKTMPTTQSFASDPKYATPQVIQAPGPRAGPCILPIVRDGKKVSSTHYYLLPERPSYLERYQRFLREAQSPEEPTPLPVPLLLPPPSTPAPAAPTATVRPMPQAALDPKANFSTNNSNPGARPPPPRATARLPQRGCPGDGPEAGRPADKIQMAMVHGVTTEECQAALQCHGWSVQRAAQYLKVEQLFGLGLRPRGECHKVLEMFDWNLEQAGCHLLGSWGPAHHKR
MYLK (human), sequence (Q15746 whole entry, looked up): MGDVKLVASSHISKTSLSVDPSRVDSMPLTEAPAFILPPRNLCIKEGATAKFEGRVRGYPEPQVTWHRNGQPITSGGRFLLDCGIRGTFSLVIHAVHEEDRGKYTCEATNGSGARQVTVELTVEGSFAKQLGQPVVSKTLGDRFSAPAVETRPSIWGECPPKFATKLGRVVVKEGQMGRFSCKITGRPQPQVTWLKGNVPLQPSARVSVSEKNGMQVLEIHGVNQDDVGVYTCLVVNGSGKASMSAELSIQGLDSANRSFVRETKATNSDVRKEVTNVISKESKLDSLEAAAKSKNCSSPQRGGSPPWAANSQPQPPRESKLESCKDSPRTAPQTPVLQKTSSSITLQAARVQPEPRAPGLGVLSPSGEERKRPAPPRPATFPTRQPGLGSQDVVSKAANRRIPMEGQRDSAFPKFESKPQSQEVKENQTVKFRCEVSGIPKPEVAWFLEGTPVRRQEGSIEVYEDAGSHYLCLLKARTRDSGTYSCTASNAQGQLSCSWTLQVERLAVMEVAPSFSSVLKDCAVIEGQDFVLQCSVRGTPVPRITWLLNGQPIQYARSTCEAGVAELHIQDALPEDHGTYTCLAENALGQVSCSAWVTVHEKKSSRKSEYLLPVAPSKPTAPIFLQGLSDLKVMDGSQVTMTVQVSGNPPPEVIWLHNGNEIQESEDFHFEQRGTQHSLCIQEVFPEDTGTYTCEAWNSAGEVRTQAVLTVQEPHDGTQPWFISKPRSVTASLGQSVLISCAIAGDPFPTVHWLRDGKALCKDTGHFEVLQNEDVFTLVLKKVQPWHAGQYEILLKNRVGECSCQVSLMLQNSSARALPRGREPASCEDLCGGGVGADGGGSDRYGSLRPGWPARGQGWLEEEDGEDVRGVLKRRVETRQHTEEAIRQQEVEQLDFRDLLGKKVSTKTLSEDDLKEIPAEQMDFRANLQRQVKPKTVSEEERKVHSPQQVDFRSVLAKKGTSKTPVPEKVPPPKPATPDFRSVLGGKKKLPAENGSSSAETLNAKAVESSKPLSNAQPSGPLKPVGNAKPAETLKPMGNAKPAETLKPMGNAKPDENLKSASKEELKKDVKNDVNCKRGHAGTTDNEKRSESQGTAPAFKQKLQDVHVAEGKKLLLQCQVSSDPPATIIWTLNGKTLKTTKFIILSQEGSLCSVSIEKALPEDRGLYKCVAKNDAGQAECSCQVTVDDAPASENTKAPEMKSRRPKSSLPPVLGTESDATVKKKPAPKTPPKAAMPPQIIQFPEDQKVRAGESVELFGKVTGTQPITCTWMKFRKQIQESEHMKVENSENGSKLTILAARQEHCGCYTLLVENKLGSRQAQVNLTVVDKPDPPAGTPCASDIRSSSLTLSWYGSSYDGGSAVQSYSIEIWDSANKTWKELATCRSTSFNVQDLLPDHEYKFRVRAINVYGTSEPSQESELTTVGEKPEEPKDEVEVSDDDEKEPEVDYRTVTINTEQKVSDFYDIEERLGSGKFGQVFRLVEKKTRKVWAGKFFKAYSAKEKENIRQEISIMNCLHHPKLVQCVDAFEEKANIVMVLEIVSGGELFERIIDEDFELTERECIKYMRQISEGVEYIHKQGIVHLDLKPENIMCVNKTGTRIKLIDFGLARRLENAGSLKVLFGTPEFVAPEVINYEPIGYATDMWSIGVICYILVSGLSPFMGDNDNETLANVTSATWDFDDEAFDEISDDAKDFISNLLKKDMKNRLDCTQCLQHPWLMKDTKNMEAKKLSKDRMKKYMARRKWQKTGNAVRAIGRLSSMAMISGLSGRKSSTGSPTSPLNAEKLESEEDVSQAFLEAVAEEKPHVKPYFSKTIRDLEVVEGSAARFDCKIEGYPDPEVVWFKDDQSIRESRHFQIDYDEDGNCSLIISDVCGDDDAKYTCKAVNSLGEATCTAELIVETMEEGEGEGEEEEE
FER (human), sequence (P16591 whole entry, looked up): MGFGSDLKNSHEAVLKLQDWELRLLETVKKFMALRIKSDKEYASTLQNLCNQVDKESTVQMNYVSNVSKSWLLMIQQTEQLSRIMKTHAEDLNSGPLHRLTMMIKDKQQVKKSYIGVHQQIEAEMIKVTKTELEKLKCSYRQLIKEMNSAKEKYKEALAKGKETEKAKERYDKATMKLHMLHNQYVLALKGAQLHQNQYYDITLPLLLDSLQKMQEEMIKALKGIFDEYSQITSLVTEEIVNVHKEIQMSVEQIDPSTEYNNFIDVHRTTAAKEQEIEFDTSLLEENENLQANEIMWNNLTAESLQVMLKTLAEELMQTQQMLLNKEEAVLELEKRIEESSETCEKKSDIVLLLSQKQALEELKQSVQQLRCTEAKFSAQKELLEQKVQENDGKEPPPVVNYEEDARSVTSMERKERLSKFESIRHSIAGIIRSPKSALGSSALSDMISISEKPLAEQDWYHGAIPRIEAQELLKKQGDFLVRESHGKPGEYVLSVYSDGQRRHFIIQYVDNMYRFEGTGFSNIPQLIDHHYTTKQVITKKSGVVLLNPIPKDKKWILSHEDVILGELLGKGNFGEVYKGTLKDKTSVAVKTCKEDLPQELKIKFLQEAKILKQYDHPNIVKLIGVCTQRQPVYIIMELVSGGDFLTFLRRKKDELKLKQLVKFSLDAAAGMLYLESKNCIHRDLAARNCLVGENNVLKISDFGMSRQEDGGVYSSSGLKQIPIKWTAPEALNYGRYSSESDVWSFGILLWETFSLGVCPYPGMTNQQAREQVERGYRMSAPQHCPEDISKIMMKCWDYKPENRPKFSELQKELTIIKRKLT

| SMILES | kinase still bound, per cent of control (LATS2 (human)) | kinase still bound, per cent of control (NEK6 (human)) | kinase still bound, per cent of control (TNK2 (human)) | kinase still bound, per cent of control (LATS1 (human)) | kinase still bound, per cent of control (TIE1 (human)) | kinase still bound, per cent of control (EPHA1 (human)) | kinase still bound, per cent of control (MAPK13 (human)) | kinase still bound, per cent of control (PKN2 (human)) | kinase still bound, per cent of control (AKT1 (human)) | kinase still bound, per cent of control (EPHA8 (human)) | kinase still bound, per cent of control (PIP5K1A (human)) | kinase still bound, per cent of control (MYLK (human)) | kinase still bound, per cent of control (EIF2AK2 (human)) | kinase still bound, per cent of control (ERBB4 (human)) | kinase still bound, per cent of control (NEK1 (human)) | kinase still bound, per cent of control (KIT (human)) | kinase still bound, per cent of control (CAMK1D (human)) | kinase still bound, per cent of control (ITK (human)) | kinase still bound, per cent of control (TGFBR1 (human)) | kinase still bound, per cent of control (FER (human)) | other results |
| --- | --- | --- | --- | --- | --- | --- | --- | --- | --- | --- | --- | --- | --- | --- | --- | --- | --- | --- | --- | --- | --- |
| CCN1CCN(Cc2ccc(NC(=O)c3ccc(C)c(/C=C/c4cnc5[nH]ccc5c4OC)c3)cc2C(F)(F)F)CC1 | 79% | 100% | 0.8% | 32% | 4.6% | 2% | 22% | 26% | 100% | 0.15% | 2.6% | 90% | 80% | 0.1% | 89% | 0% | 100% | 18% | 100% | 27% | kinase still bound, per cent of control [1]: 1.1%; kinase still bound, per cent of control (MUSK (human)): 0%; kinase still bound, per cent of control (ULK1 (human)): 8.5%; kinase still bound, per cent of control (CAMK2A (human)): 100%; kinase still bound, per cent of control [2]: 36%; kinase still bound, per cent of control [3]: 26%; kinase still bound, per cent of control (MAPK14 (human)): 0%; kinase still bound, per cent of control (MAP2K6 (human)): 79%; kinase still bound, per cent of control (GAK (human)): 2.2%; kinase still bound, per cent of control (MAPK11 (human)): 0%; kinase still bound, per cent of control (VRK2 (human)): 92%; kinase still bound, per cent of control (PRKCH (human)): 100%; kinase still bound, per cent of control (DDR2 (human)): 9%; kinase still bound, per cent of control (RPS6KB1 (human)): 9%; kinase still bound, per cent of control (FRK (human)): 0.6%; kinase still bound, per cent of control (MAK (human)): 100%; kinase still bound, per cent of control (MERTK (human)): 9.2%; kinase still bound, per cent of control (PRKG1 (human)): 100%; kinase still bound, per cent of control (STK16 (human)): 54%; kinase still bound, per cent of control (STK3 (human)): 5.2% |
| N#C/C(=C1/Nc2ccccc2S1)c1ccnc(NCCc2cccnc2)n1 | 92% | 100% | 91% | 100% | 100% | 100% | 51% | 100% | 100% | 100% | 18% | 66% | 72% | 63% | 57% | 31% | 70% | 100% | 100% | 100% | kinase still bound, per cent of control (MUSK (human)): 100%; kinase still bound, per cent of control (ULK1 (human)): 36%; kinase still bound, per cent of control (CAMK2A (human)): 46%; kinase still bound, per cent of control [2]: 72%; kinase still bound, per cent of control [3]: 100%; kinase still bound, per cent of control (MAPK14 (human)): 57%; kinase still bound, per cent of control (MAP2K6 (human)): 64%; kinase still bound, per cent of control (GAK (human)): 4.6%; kinase still bound, per cent of control (MAPK11 (human)): 85%; kinase still bound, per cent of control (VRK2 (human)): 100%; kinase still bound, per cent of control (PRKCH (human)): 100%; kinase still bound, per cent of control (DDR2 (human)): 100%; kinase still bound, per cent of control (RPS6KB1 (human)): 41%; kinase still bound, per cent of control (FRK (human)): 100%; kinase still bound, per cent of control (MAK (human)): 100%; kinase still bound, per cent of control (MERTK (human)): 100%; kinase still bound, per cent of control (PRKG1 (human)): 100%; kinase still bound, per cent of control (STK16 (human)): 13%; kinase still bound, per cent of control (STK3 (human)): 59% |
| COc1cc2c(Nc3ccc(NC(=O)c4ccccc4)cc3)ncnc2cc1OCCCN1CCOCC1 | 82% | 100% | 5.9% | 100% | 27% | 100% | 40% | 100% | 100% | 83% | 100% | 92% | 100% | 0.65% | 81% | 0% | 62% | 100% | 100% | 65% | kinase still bound, per cent of control [1]: 22%; kinase still bound, per cent of control (MUSK (human)): 100%; kinase still bound, per cent of control (ULK1 (human)): 48%; kinase still bound, per cent of control (CAMK2A (human)): 85%; kinase still bound, per cent of control [2]: 69%; kinase still bound, per cent of control (MAPK14 (human)): 100%; kinase still bound, per cent of control (MAP2K6 (human)): 86%; kinase still bound, per cent of control (GAK (human)): 60%; kinase still bound, per cent of control (MAPK11 (human)): 84%; kinase still bound, per cent of control (VRK2 (human)): 100%; kinase still bound, per cent of control (PRKCH (human)): 100%; kinase still bound, per cent of control (DDR2 (human)): 100%; kinase still bound, per cent of control (RPS6KB1 (human)): 7.4%; kinase still bound, per cent of control (FRK (human)): 82%; kinase still bound, per cent of control (MAK (human)): 59%; kinase still bound, per cent of control (MERTK (human)): 2.4%; kinase still bound, per cent of control (PRKG1 (human)): 100%; kinase still bound, per cent of control (STK16 (human)): 100%; kinase still bound, per cent of control (STK3 (human)): 100% |

Source: the kinase profiling compilation of Christmann-Franck et al. (2016)
